Test results: patent publication US20040247674A1, “Drug delivery system” (priority 2001, published 2004)

Assay: release rates of active agents from core-membrane implants
Assay type: physicochemical
Details: for release rate over time: Example 4 implant (FIG. 12): membrane PDMS/trifluoropropyl modified PDMS, fluoro-content 55 wt-%, thickness 0.25 mm
From the text: The implant structure was as disclosed in FIG. 2. The first part of the core consisted of PDMS comprising levonorgestrel and the length was 35 mm. The second part of the core consisted of PEO-PDMS having 50% of PEO, comprising estradiol, and the length was 8 mm.
The core parts were encased in a membrane consisting of PEO-PDMS in a ratio of 10:90. The thickness of the membrane was 0.2 mm and the outer diameter of the implant 2.48 mm.
The implant structure was as disclosed in FIG. 2. The first part of the core consisted of PEO-PDMS in a ratio of 50:50 comprising compound 1 and the length was 34 mm. The second part of the core consisted of PEO-PDMS having 50% of PEO, comprising estradiol, and the length was 6 mm.
The core parts were encased in a membrane consisting of PEO-PDMS in a ratio of 20:80. The thickness of the membrane was 0.2 mm and the outer diameter of the implant 2.48 mm.
The implant structure was as disclosed in FIG. 2. The first part of the core consisted of Pt-catalysed PDMS comprising 60 weight-% MENT having a length of 44 mm and a diameter of 3.0 mm. The second part of the core consisted of peroxide-catalysed PDMS comprising 50 weight-% gestodene having a length of 12 mm and a diameter of 3.0 mm.
Both core parts were encapsulated by a membrane consisting of a mixture of PDMS and trifluoropropyl modified PDMS. The fluoro-content in the membrane varied from 55 weight-% to 75 weight-%. The thickness of the membrane was 0.25 or 0.35 mm and thus the outer diameter of the implant 3.5 or 3.7 mm, respectively.
MENT is represented by the trinagles and gestodene by the lozenges.

Row | Compound | release rate over time | release rate of compound 1 versus target (Example 2 implant (FIG. 10): PEO-PDMS 50:50 core part 34 mm, membrane PEO-PDMS 20:80, 0.2 mm, target 50 μg/day) | release rate of gestodene, membrane thickness 0.25 mm compared with 0.35 mm (Example 4 implant (FIG. 14): membrane fluoro-content 60 wt-%)
1 | C[C@@H]1CC2=CC(=O)CC[C@@H]2[C@H]2CC[C@]3(C)[C@@H](O)CC[C@H]3[C@@H]21 [MENT, 7-α-methyl-19-nortestosterone] | essentially constant over time |  | 
2 | CC(=O)c1ccc(C2C[C@@]3(C)[C@@H](CCC3(O)C(F)(F)C(F)(F)F)[C@@H]3CCC4=CC(=O)CCC4=C23)cc1 (stereo partly shown) [compound 1, 11-(4-Acetylphenyl)-17-hydroxy-17-(1,1,2,2,2-pentafluoroethyl)estra-4,9-dien-3-one] |  | target release rates were obtained | 
3 | C#C[C@]1(O)C=C[C@H]2[C@@H]3CCC4=CC(=O)CC[C@@H]4[C@H]3CC[C@@]21CC [gestodene] | essentially constant over time |  | higher
